Source: patent US11179383B2 (Gilead Sciences, Inc., priority 2018, dated 2021)
Read-outs that look alike come from different tables or passages of the source.

Target: T1, α4β7 integrin (Homo sapiens, UniProt P13612+P26010)
T1 construct: monitoring the capture of α4β7 integrin expressing cells on a recombinant MadCAM-1 extracellular domain-coated plate; endogenous in cells; host or cells: RPMI8866 cells
T1 sequence (P13612 34-1032): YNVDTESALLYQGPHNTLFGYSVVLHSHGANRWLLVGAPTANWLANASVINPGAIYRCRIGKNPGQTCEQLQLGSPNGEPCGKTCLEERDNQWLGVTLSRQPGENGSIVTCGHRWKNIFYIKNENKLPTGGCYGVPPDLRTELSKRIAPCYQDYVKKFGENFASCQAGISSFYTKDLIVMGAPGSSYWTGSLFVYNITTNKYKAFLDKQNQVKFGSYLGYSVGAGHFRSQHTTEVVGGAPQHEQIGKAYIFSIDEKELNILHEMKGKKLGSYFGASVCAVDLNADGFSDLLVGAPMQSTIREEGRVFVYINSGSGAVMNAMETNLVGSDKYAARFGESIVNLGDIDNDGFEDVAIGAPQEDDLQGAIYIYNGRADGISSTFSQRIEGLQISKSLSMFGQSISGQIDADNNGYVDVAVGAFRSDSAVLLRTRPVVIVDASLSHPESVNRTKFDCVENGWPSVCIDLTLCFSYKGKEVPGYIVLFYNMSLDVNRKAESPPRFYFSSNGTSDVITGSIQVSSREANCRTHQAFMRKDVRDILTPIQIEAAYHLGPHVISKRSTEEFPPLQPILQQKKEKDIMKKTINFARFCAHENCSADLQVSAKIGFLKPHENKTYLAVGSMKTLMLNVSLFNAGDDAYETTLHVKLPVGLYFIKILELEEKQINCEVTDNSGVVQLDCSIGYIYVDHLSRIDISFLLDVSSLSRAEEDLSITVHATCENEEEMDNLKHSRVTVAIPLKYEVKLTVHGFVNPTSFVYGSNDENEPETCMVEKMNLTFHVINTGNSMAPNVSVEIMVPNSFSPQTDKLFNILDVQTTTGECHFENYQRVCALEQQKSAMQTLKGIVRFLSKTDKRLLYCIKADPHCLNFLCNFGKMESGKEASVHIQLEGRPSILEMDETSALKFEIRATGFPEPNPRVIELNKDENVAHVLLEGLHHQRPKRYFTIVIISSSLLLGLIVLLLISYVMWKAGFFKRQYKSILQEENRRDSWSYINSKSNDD
T1 sequence (P26010 20-798): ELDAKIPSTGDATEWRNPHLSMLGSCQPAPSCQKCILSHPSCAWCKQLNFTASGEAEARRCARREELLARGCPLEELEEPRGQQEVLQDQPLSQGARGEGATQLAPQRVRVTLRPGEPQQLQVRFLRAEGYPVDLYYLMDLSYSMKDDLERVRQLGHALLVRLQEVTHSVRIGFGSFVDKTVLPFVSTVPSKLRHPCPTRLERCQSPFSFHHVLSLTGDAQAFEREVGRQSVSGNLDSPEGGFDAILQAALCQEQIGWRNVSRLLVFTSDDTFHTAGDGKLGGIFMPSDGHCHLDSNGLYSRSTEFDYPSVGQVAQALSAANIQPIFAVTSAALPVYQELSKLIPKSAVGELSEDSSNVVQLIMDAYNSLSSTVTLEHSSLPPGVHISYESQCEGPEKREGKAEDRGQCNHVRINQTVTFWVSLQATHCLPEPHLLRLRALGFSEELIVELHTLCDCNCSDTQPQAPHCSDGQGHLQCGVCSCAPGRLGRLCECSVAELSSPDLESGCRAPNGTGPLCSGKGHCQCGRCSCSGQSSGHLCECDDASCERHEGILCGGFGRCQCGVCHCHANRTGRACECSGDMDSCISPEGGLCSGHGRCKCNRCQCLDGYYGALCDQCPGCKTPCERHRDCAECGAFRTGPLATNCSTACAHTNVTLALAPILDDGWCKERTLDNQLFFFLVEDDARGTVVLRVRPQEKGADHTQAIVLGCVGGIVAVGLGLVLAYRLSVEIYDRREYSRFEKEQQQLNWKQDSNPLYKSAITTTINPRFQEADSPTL
Test: α4β7 Integrin Cell Capture Assay
Assay type: cell-based
Conditions: capture of α4β7 integrin expressing RPMI8866 cells on recombinant MadCAM-1 extracellular domain-coated plate, DMEM+0.5% FBS+0.5 mM MnCl2
Procedure, shortened: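 RPMI8866 cells in DMEM + 0.5% FBS + 0.5 mM MnCl2 preincubated with compound 1 h at 37 °C, then allowed to bind 30 min at 37 °C to plates coated with MAdCAM-1 extracellular domain (1.0 μg/mL). Cells fixed with glutaraldehyde, Hoechst-stained, imaged and bound cells counted; EC50 from cell count versus concentration.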

EC50 (read-out: EC50 α4β7) | SMILES | EC50 (EC50 α4β7 (nM))
123 nM | CCn1cccc(-c2ccc(C[C@H](NC(=O)c3c(Cl)cccc3Cl)C(=O)O)c3ncccc23)c1=O [Example 22, (S)-2-(2,6-dichlorobenzamido)-3-(5-(1-ethyl-2-oxo-1,2-dihydropyridin-3-yl)quinolin-8-yl)propanoic acid] | –
30.2 nM | CCOCc1cc(OC)c(-c2ccc(CC(NC(=O)c3c(F)cc(NS(=O)(=O)c4ccc(-c5ccnc(F)c5)cc4)cc3F)C(=O)O)c3c2cnn3C)c(OC)c1 (stereo not drawn) [Example 143, 2-(2,6-difluoro-4-((4-(2-fluoropyridin-4-yl)phenyl)sulfonamido)benzamido)-3-(4-(4-(ethoxymethyl)-2,6-dimethoxyphenyl)-1-methyl-1H-indazol-7-yl)propanoic acid] | –
3.4 nM | Cn1c(=O)c(-c2ccc(C[C@H](NC(=O)c3c(Cl)cccc3Cl)C(=O)O)c3ccccc23)cc2ccccc21 [Example 108, (S)-2-(2,6-dichlorobenzamido)-3-(4-(1-methyl-2-oxo-1,2-dihydroquinolin-3-yl)naphthalen-1-yl)propanoic acid] | –
3.2 nM | Cn1c(=O)c(-c2ccc(C[C@H](NC(=O)c3c(Cl)cccc3Cl)C(=O)O)c3ncccc23)c(C(F)(F)F)c2ccccc21 (single isomer, unassigned) [Example 62] | –
21.7 nM | O=C(N[C@@H](Cc1ccc(-c2ncc3ccccc3c2C(F)(F)F)c2ccccc12)C(=O)O)c1c(Cl)cccc1Cl [Example 115, (S)-2-(2,6-dichlorobenzamido)-3-(4-(4-(trifluoromethyl)isoquinolin-3-yl)naphthalen-1-yl)propanoic acid] | –
243 nM | COc1c(F)cccc1-c1ccc(C[C@H](NC(=O)c2c(Cl)cccc2Cl)C(=O)O)c2ncccc12 [Example 45, (S)-2-(2,6-dichlorobenzamido)-3-(5-(3-fluoro-2-methoxyphenyl)quinolin-8-yl)propanoic acid] | –
16.7 nM | Cn1cc(Cl)cc(-c2ccc(C[C@H](NC(=O)c3c(Cl)cccc3Cl)C(=O)O)c3ncccc23)c1=O [Example 29, (S)-3-(5-(5-chloro-1-methyl-2-oxo-1,2-dihydropyridin-3-yl)quinolin-8-yl)-2-(2,6-dichlorobenzamido)propanoic acid] | –
22.2 nM | Cc1ccnc2c(C[C@H](NC(=O)c3c(Cl)cccc3Cl)C(=O)O)ccc(-c3cc4ccccc4n(C)c3=O)c12 [Example 100, (S)-2-(2,6-dichlorobenzamido)-3-(1,4′-dimethyl-2-oxo-1,2-dihydro-[3,5′-biquinolin]-8′-yl)propanoic acid] | –
57.8 nM | CCOCc1cc(OC)c(-c2ccc(C[C@H](NC(=O)c3c(F)cccc3F)C(=O)O)c3nc(C)oc23)c(OC)c1 [Example 152, (S)-2-(2,6-difluorobenzamido)-3-(7-(4-(ethoxymethyl)-2,6-dimethoxyphenyl)-2-methylbenzo[d]oxazol-4-yl)propanoic acid] | –
6.6 nM | Cc1c(-c2ccc(C[C@H](NC(=O)c3c(F)cccc3F)C(=O)O)c3ncccc23)c(=O)n(C)c(=O)n1C (single isomer, unassigned) [Example 81] | –
6.4 nM | Cc1cc(C)n(C)c(=O)c1-c1ccc(C[C@H](NC(=O)c2c(F)cc(N3CCOC[C@@H]3C(F)(F)F)cc2F)C(=O)O)c2ccccc12 (single isomer, unassigned) [Example 126] | –
63.1 nM | [2H]C([2H])([2H])Oc1cc(F)c(F)cc1-c1ccc(C[C@H](NC(=O)c2c(Cl)cccc2Cl)C(=O)O)c2ncccc12 [Example 55, (S)-2-(2,6-dichlorobenzamido)-3-(5-(4,5-difluoro-2-(methoxy-d3)phenyl)quinolin-8-yl)propanoic acid] | –
0.2 nM | COc1cc(C)n(C)c(=O)c1-c1ccc(C[C@H](NC(=O)c2c(F)cc(N3CCOC[C@@H]3C(F)(F)F)cc2F)C(=O)O)c2ccccc12 (single isomer, unassigned) [Example 124] | –
57.7 nM | O=C(N[C@@H](Cc1ccc(-c2cccc3scnc23)c2cccnc12)C(=O)O)c1c(Cl)cccc1Cl [Example 14, (S)-3-(5-(benzo[d]thiazol-4-yl)quinolin-8-yl)-2-(2,6-dichlorobenzamido) propanoic acid] | –
17 nM | Cn1cc(-c2ccc(C[C@H](NC(=O)c3c(F)cccc3F)C(=O)O)c3ncccc23)c(=O)n(C)c1=O [Example 80, (S)-2-(2,6-difluorobenzamido)-3-(5-(1,3-dimethyl-2,4-dioxo-1,2,3,4-tetrahydropyrimidin-5-yl)quinolin-8-yl)propanoic acid] | –
0.9 nM | CC[C@@H](Nc1cc(F)c(C(=O)N[C@@H](Cc2ccc(-c3c(OC)cnn(C)c3=O)c3ccccc23)C(=O)O)c(F)c1)C(F)(F)F (single isomer, unassigned) [Example 137] | –
82.9 nM | Cc1c(-c2ccc(C[C@H](NC(=O)c3c(F)cccc3F)C(=O)O)c3ccccc23)c(=O)n(C)c2ccccc12 (single isomer, unassigned) [Example 119] | –
– | CN(C)C(=O)Oc1ccc(C[C@H](NC(=O)c2c(Cl)cccc2Cl)C(=O)O)c2ncccc12 [Example 89, (S)-2-(2,6-dichlorobenzamido)-3-(5-((dimethylcarbamoyl)oxy)quinolin-8-yl)propanoic acid] | 173 nM
181 nM | O=C(N[C@@H](Cc1ccc(-c2c(Cl)cc(F)cc2Cl)c2nsnc12)C(=O)O)c1c(F)cccc1F [Example 150, (S)-3-(7-(2,6-dichloro-4-fluorophenyl)benzo[c][1,2,5]thiadiazol-4-yl)-2-(2,6-difluorobenzamido)propanoic acid] | –
10.2 nM | CC[C@@H](Nc1cc(F)c(C(=O)N[C@@H](Cc2ccc(-c3nccc(C)c3C(F)(F)F)c3ccccc23)C(=O)O)c(F)c1)C(F)(F)F [Example 123, (S)-2-(2,6-difluoro-4-(((R)-1,1,1-trifluorobutan-2-yl)amino)benzamido)-3-(4-(4-methyl-3-(trifluoromethyl)pyridin-2-yl)naphthalen-1-yl)propanoic acid] | –
196 nM | O=C(N[C@@H](Cc1ccc(-c2c(Cl)cc(F)cc2Cl)c2ccccc12)C(=O)O)c1c(F)cccc1F [Example 106, (S)-3-(4-(2,6-dichloro-4-fluorophenyl)naphthalen-1-yl)-2-(2,6-difluorobenzamido)propanoic acid] | –
7.5 nM | Cc1c(-c2ccc(C[C@H](NC(=O)c3c(Cl)cccc3Cl)C(=O)O)c3ncccc23)c(=O)n(C)c2cc(F)ccc12 [Example 41, (S)-2-(2,6-dichlorobenzamido)-3-(7-fluoro-1,4-dimethyl-2-oxo-1,2-dihydro-[3,5′-biquinolin]-8′-yl)propanoic acid] | –
19.5 nM | Cc1c(-c2ccc(C[C@H](NC(=O)c3c(Cl)cccc3Cl)C(=O)O)c3ncccc23)c(=O)n(C)c2ccc(F)cc12 (single isomer, unassigned) [Example 12] | –
26.8 nM | CCOCc1cc(OC)c(-c2ccc(C[C@H](NC(=O)c3c(F)cccc3F)C(=O)O)c3nccc(Cl)c23)c(OC)c1 [Example 93, (S)-3-(4-chloro-5-(4-(ethoxymethyl)-2,6-dimethoxyphenyl)quinolin-8-yl)-2-(2,6-difluorobenzamido)propanoic acid] | –
